Series [1] deals with hepatocyte cell line HepG2. Put plainly: Toxicity on hepatocyte cell line HepG2 (MTT test). The format is cell-based. The following applies: for CD50 (cytotoxic concentration leading to reduction of 50% of the cell number compared to untreated cells): HepG2, 72 h, MTT test. How it is done:
PACLP and paclitaxel were evaluated in vitro using hepatocyte cell line HepG2. Cells were cultured in 96 well plates at a cell density of 20000 cell/well and treated with increasing concentrations of both PACLP and paclitaxel (0-1000 μM) for 72 h. Control cells were treated with an absolute ethanol, diluted in the same way as the tested substances. Cytotoxicity was measured using the MTT test. All experiments were carried out in triplicates and each test was repeated three times.
CD50 (the cytotoxic concentration leading to reduction of 50% of the cell number compared to untreated cells) was at concentration of 5 μM and 100 μM, and 500 μM for paclitaxel, PACLP, and the solvent, respectively.
For orientation: Tetrazolium dyes change colour on reduction, which living cells bring about.

The test system of the next series is 6 cancer cell lines. Put plainly: In vitro anti-tumor activity on 6 cancer cell lines (overall comparison). In kind it is cell-based. The following applies: in words. As to the method: (§1) Cancer cells, HeLa, Caco-2, PC3 prostate, CAPAN, A549, SKBR3 were maintained in a humidified atmosphere at 37° C. and gassed with 5% CO2 in air in air. The cells were incubated with various concentrations of paclitaxel and PACLP. The in vitro cytotoxicity of the drugs was measured by a proliferation assay utilizing tetrazolium dye, MTT ([3-(4,5-[…])-2,5 diphenyl tetrazolium bromid). The experiments were carried out with cells in the exponential growth phase.
(§2) Results of these experiments are presented in graphs 3a-3f, indicating the IC50, (the concentration found to inhibit about fifty percent of the growth of the cancer cell lines).

Series [2] has as its system endothelial cells of human (H-1044 EC p7 naïve). Put plainly: Effect on endothelial cell proliferation (cell count). In kind it is cell-based. The following applies: 48 hours, in words. How it is done: The test was conducted using endothelial cells of human (H-1044 EC p7 naïve). 70,000 cells were grown in each well. After the cells have adhered for 3 hours, the material (paclitaxel or PACLP) was added to the cells. After 48 hours of cell growth the cells were detached by trypsin and counted. The results are set in.

For another series, the system named is CAPAN. The series is described as follows: MTT proliferation assay, in vitro cytotoxicity. The format is cell-based. The following applies: 72 h, FIG. 3d, read-out: calculated EC50. As to the method:
as §1, §2

The test system of the next series is SKBR3 breast carcinoma. The series is described as follows: MTT proliferation assay, in vitro cytotoxicity. The format is cell-based. The note with it: Homo sapiens, SK-BR-3, FIG. 3f, read-out: calculated EC50. As to the method:
as §1, §2

In a further series the test system is PC3 prostate carcinoma. Put plainly: MTT proliferation assay, in vitro cytotoxicity. The following applies: FIG. 3c, read-out: calculated EC50. The format is cell-based. As to the method: as §1, §2
The subject of the next series is A549 lung cancer. The series is described as follows: MTT proliferation assay, in vitro cytotoxicity. The format is cell-based. The note with it: Homo sapiens, FIG. 3e, read-out: Calculated EC50. How it is done: as §1, §2
A further series concerns HeLa cell line. Put plainly: MTT proliferation assay, in vitro cytotoxicity. The format is cell-based. The note with it: Homo sapiens, FIG. 3a, read-out: calculated EC50. How it is done: as §1, §2
Series [3] relates to Caco-2 carcinoma of the colon. Put plainly: MTT proliferation assay, in vitro cytotoxicity. The following applies: Homo sapiens, FIG. 3b, read-out: calculated EC50. In kind it is cell-based. As to the method: as §1, §2
In the next series the test system is Balb/c mice. The series is described as follows: LD50 test using Balb/c mice. The note with it: 80-140 mg/kg, observed 4 weeks after injection. In kind it is in vivo. As to the method:
Balb/c mice were divided into 9 groups, 8 mice in each group (4 males and 4 females). Group one, the control group, were given 50 μl solvent with 150 μL normal saline. Groups 2, 3, 4 and 5 were given 125, 150, 175, 200 mg/kg of PACLP respectively. Groups 6, 7, 8 and 9 were given 80, 100, 120, 140 mg/kg of paclitaxel respectively. Mice were observed 4 weeks after injection. The results are set in FIG. 6. Most of the animals died within the first week after treatment.

The structures appear in SMILES notation. Converted amounts (≈) assume the structure as drawn. “Also recorded” adds a separate entry of the source.

For the molecule `CC(=O)O[C@H]1C(=O)[C@@]2(C)[C@H]([C@H](OC(=O)c3ccccc3)[C@]3(O)C[C@H](OC(=O)[C@H](OC(=O)CCCCC4CCSS4)[C@@H](NC(=O)c4ccccc4)c4ccccc4)C(C)=C1C3(C)C)[C@]1(OC(C)=O)CO[C@@H]1C[C@@H]2O` (stereo partly drawn) [PACLP, Paclitaxel-lipoate], the “CD50 (cytotoxic concentration leading to reduction of 50% of the cell number compared to untreated cells)” value in [1] stood at 100 µM. Moreover, the “cytotoxicity compared to paclitaxel” value in [1] (hepatocyte cell line HepG2, in words) was “less cytotoxic”; in series [2], “less cytotoxic”. For the same molecule, the “anti-tumor activity compared to free paclitaxel” value with 6 cancer cell lines was “greater anti-tumor activity; also recorded: somewhat more effective than paclitaxel”. In addition, the EC50 with CAPAN is 5 µg/mL (≈ 4.8 µM); in the series on SKBR3 breast carcinoma it was 2 µg/mL (≈ 1.92 µM); in the series on PC3 prostate carcinoma, 3.5 µg/mL (≈ 3.36 µM); in the series with A549 lung cancer, 2.5 µg/mL (≈ 2.4 µM); with HeLa cell line, 1.5 µg/mL (≈ 1.44 µM); in series [3], 1.5 µg/mL (≈ 1.44 µM).

For `CC(=O)O[C@H]1C(=O)[C@@]2(C)[C@H]([C@H](OC(=O)c3ccccc3)[C@]3(O)C[C@H](OC(=O)[C@H](O)[C@@H](NC(=O)c4ccccc4)c4ccccc4)C(C)=C1C3(C)C)[C@]1(OC(C)=O)CO[C@@H]1C[C@@H]2O` [paclitaxel, reference compound], the “CD50 (cytotoxic concentration leading to reduction of 50% of the cell number compared to untreated cells)” value in [1] came out at 5 µM. Also, the EC50 in the series with CAPAN was 11 µg/mL (≈ 12.9 µM); in the series on SKBR3 breast carcinoma, 19 µg/mL (≈ 22.3 µM); in the series with PC3 prostate carcinoma it was 12 µg/mL (≈ 14.1 µM); with A549 lung cancer, 5.5 µg/mL (≈ 6.44 µM); with HeLa cell line it was 9 µg/mL (≈ 10.5 µM); in series [3], 9 µg/mL (≈ 10.5 µM). Besides, the observation before death entry in the series on Balb/c mice was “swelling and redness before death”.

A word on the EC50: it is the concentration that produces a half-maximal response.

(Values after US8586625B2, “Derivatives of taxol and closely related compounds” (priority 2008, dated 2013).)
